Results taken from US20240058422A1, “GLUCAGON-LIKE PEPTIDE-1 RECEPTOR ANTAGONISTS” (INDIANA UNIVERSITY RESEARCH AND TECHNOLOGY CORPORATION, priority 2022, published 2024).
Values after ≈ are worked out from the molar mass of the structure shown. Where two headings read alike, the source gives them in different places. Starred links: 1 amine or outer side, 2 acyl side, 3 side chain; linkers in the order of their positions; H or OH if unused. Non-standard residues stand in square brackets, D forms with d. Residues, ends and D or L forms follow the SMILES beside them. Groups on a side chain read outwards from the residue. *: point of attachment. C18 diacid = O=C(O)CCCCCCCCCCCCCCCCC(=O)*; γGlu = O=C(O)[C@H](CCC(=O)[*:2])N[*:1]; Palmitoyl = CCCCCCCCCCCCCCCC(=O)*; AEEA = NCCOCCOCC(=O)O

Assays:
physchem = conditions: pH 7.7, Solubility 80 mM AmeBicarb pH7.7
Solubility in buffer = conditions: 80 mM ammonium bicarbonate buffer
GLP-1R = GLP-1R (Homo sapiens, UniProt P43220); experiment: GLP-1 receptor-mediated cAMP induction, luciferase reporter gene antagonism assay; format: cell-based; set-up: host or cells: HEK 293; conditions: antagonism of 0.05 nM GLP-1, HEK 293 cells
GLP-1R, sequence (P43220 24-463): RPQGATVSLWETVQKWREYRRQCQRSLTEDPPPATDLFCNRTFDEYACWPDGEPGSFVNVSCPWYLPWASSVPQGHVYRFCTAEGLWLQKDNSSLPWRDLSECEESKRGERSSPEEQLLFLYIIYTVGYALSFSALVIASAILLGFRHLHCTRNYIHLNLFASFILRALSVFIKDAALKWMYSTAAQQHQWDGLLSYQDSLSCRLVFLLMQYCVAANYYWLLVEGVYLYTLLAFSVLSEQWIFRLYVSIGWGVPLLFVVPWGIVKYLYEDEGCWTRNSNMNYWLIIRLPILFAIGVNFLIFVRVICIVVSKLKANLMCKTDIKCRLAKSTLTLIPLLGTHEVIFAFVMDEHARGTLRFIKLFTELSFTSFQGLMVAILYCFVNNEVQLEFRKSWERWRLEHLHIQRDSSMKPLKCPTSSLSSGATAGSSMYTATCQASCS
Outline: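 HEK 293 cells cotransfected with human GLP-1 receptor and CRE-luciferase were serum-deprived 16 h, then given serial peptide dilutions followed by 0.05 nM GLP-1 and incubated 5 h at 37° C.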

[1] = pH 7.7, Solubility [mg/mL] 80 mM AmBicarb pH7.7, Table 2, 80 mM AmBicarb pH7.7
[2] = Table 2, C16 linker variants of 9-40amide Jant4 K40[X], read-out: Biactivity IC50
[3] = Table 5, d-AA variants of 9-40am Jant4 K40[C16], read-out: Bioactivity KC50

Q: With `CCCCCCCCCCCCCCCC(=O)NCCCC[C@H](NC(=O)[C@H](CO)NC(=O)[C@@H]1CCCN1C(=O)[C@@H]1CCCN1C(=O)[C@@H]1CCCN1C(=O)[C@H](C)NC(=O)CNC(=O)[C@H](CO)NC(=O)[C@H](CO)NC(=O)[C@@H]1CCCN1C(=O)CNC(=O)CNC(=O)[C@H](CCCNC(=N)N)NC(=O)[C@@H](NC(=O)[C@H](CC(C)C)NC(=O)[C@H](Cc1c[nH]c2ccccc12)NC(=O)[C@H](CCC(=O)O)NC(=O)[C@@H](NC(=O)[C@H](Cc1ccccc1)NC(=O)[C@H](CCC(=O)O)NC(=O)[C@H](CCCNC(=N)N)NC(=O)[C@@H](NC(=O)[C@H](C)NC(=O)[C@H](CCC(N)=O)NC(=O)[C@H](CCC(=O)O)NC(=O)[C@H](CCC(=O)O)NC(=O)[C@H](CC(C)C)NC(=O)[C@H](Cc1ccc(O)cc1)NC(=O)[C@H](CO)NC(=O)[C@H](CO)NC(=O)[C@@H](NC(=O)[C@@H](N)CC(=O)O)C(C)C)C(C)C)[C@@H](C)CC)C(C)C)C(N)=O` [compound 70] (H-DVSSYLEEQAVREFIEWLVRGGPSSGAPPPSK(Palmitoyl)-NH2) as the molecule, how does the solubility (physchem) read?
A: Its solubility is over 20 mg/mL.

Q: Which solubility (Solubility in buffer; [1]) does the source give for `CC[C@H](C)[C@H](NC(=O)[C@H](Cc1ccccc1)NC(=O)[C@H](CCC(=O)O)NC(=O)[C@H](CCCNC(=N)N)NC(=O)[C@@H](NC(=O)[C@H](C)NC(=O)[C@H](CCC(N)=O)NC(=O)[C@H](CCC(=O)O)NC(=O)[C@H](CCC(=O)O)NC(=O)[C@H](CC(C)C)NC(=O)[C@H](Cc1ccc(O)cc1)NC(=O)[C@H](CO)NC(=O)[C@H](CO)NC(=O)[C@@H](NC(=O)[C@@H](N)CC(=O)O)C(C)C)C(C)C)C(=O)N[C@@H](C)C(=O)N[C@@H](Cc1c[nH]c2ccccc12)C(=O)N[C@@H](CC(C)C)C(=O)N[C@H](C(=O)N[C@@H](CCCCN)C(=O)NCC(=O)NCC(=O)N1CCC[C@H]1C(=O)N[C@@H](CO)C(=O)N[C@@H](CO)C(=O)NCC(=O)N[C@@H](C)C(=O)N1CCC[C@H]1C(=O)N1CCC[C@H]1C(=O)N1CCC[C@H]1C(=O)N[C@@H](CO)C(=O)N[C@@H](CCCCNC(=O)COCCOCCNC(=O)CC[C@H](NC(=O)CCCCCCCCCCCCCCCCC(=O)O)C(=O)O)C(N)=O)C(C)C` [compound 68] (H-DVSSYLEEQAVREFIAWLVKGGPSSGAPPPSK([AEEA-γGlu-C18 diacid])-NH2; N-terminus assumed) here?
A: The solubility was over 25 mg/mL.

Q: And the IC50 (GLP-1R; [2])?
A: The IC50 was 0.718 µM.

Q: Which results are given for `CCCCCCCCCCCCCCCC(=O)N[C@@H](CCC(=O)N[C@@H](CCC(=O)N[C@@H](CCC(=O)N[C@@H](CCC(=O)NCCCC[C@H](NC(=O)[C@H](CO)NC(=O)[C@@H]1CCCN1C(=O)[C@@H]1CCCN1C(=O)[C@@H]1CCCN1C(=O)[C@H](C)NC(=O)CNC(=O)[C@H](CO)NC(=O)[C@H](CO)NC(=O)[C@@H]1CCCN1C(=O)CNC(=O)CNC(=O)[C@H](CCCCN)NC(=O)[C@@H](NC(=O)[C@H](CC(C)C)NC(=O)[C@H](Cc1c[nH]c2ccccc12)NC(=O)[C@H](C)NC(=O)[C@@H](NC(=O)[C@H](Cc1ccccc1)NC(=O)[C@H](CCC(=O)O)NC(=O)[C@H](CCCNC(=N)N)NC(=O)[C@@H](NC(=O)[C@H](C)NC(=O)[C@H](CCC(N)=O)NC(=O)[C@H](CCC(=O)O)NC(=O)[C@H](CCC(=O)O)NC(=O)[C@H](CC(C)C)NC(=O)[C@H](Cc1ccc(O)cc1)NC(=O)[C@H](CO)NC(=O)[C@H](CO)NC(=O)[C@@H](NC(=O)[C@@H](N)CC(=O)O)C(C)C)C(C)C)[C@@H](C)CC)C(C)C)C(N)=O)C(=O)O)C(=O)O)C(=O)O)C(=O)O` [compound 54] (H-DVSSYLEEQAVREFIAWLVKGGPSSGAPPPSK([γGlu-γGlu-γGlu-γGlu-Palmitoyl])-NH2)?
A: solubility (Solubility in buffer; [1]): > 20 mg/mL; IC50 (GLP-1R; [2]): 0.021 µM

Q: For `CCCCCCCCCCCCCCCC(=O)NCCCC[C@H](NC(=O)[C@H](CO)NC(=O)[C@@H]1CCCN1C(=O)[C@@H]1CCCN1C(=O)[C@@H]1CCCN1C(=O)[C@H](C)NC(=O)CNC(=O)[C@H](CO)NC(=O)[C@H](CO)NC(=O)[C@@H]1CCCN1C(=O)CNC(=O)CNC(=O)[C@H](CCCCN)NC(=O)[C@@H](NC(=O)[C@H](CC(C)C)NC(=O)[C@H](Cc1c[nH]c2ccccc12)NC(=O)[C@H](C)NC(=O)[C@@H](NC(=O)[C@H](Cc1ccccc1)NC(=O)[C@H](CCC(=O)O)NC(=O)[C@@H](CCCNC(=N)N)NC(=O)[C@@H](NC(=O)[C@H](C)NC(=O)[C@H](CCC(N)=O)NC(=O)[C@H](CCC(=O)O)NC(=O)[C@H](CCC(=O)O)NC(=O)[C@H](CC(C)C)NC(=O)[C@H](Cc1ccc(O)cc1)NC(=O)[C@H](CO)NC(=O)[C@H](CO)NC(=O)[C@@H](NC(=O)[C@@H](N)CC(=O)O)C(C)C)C(C)C)[C@@H](C)CC)C(C)C)C(N)=O` [compound 87] (H-DVSSYLEEQAV[dR]EFIAWLVKGGPSSGAPPPSK(Palmitoyl)-NH2; N-terminus assumed), which solubility (Solubility in buffer; pH 7.7) is on record?
A: Its solubility is 0.8 mg/mL (≈ 0.22 mM).

Q: And the IC50 (GLP-1R; [3])?
A: Its IC50 is 0.016 µM.

Q: With `CCCCCCCCCCCCCCCC(=O)NCCOCCOCC(=O)N[C@@H](CCC(=O)N[C@@H](CCC(=O)NCCOCCOCC(=O)NCCCC[C@H](NC(=O)[C@H](CO)NC(=O)[C@@H]1CCCN1C(=O)[C@@H]1CCCN1C(=O)[C@@H]1CCCN1C(=O)[C@H](C)NC(=O)CNC(=O)[C@H](CO)NC(=O)[C@H](CO)NC(=O)[C@@H]1CCCN1C(=O)CNC(=O)CNC(=O)[C@H](CCCCN)NC(=O)[C@@H](NC(=O)[C@H](CC(C)C)NC(=O)[C@H](Cc1c[nH]c2ccccc12)NC(=O)[C@H](C)NC(=O)[C@@H](NC(=O)[C@H](Cc1ccccc1)NC(=O)[C@H](CCC(=O)O)NC(=O)[C@H](CCCNC(=N)N)NC(=O)[C@@H](NC(=O)[C@H](C)NC(=O)[C@H](CCC(N)=O)NC(=O)[C@H](CCC(=O)O)NC(=O)[C@H](CCC(=O)O)NC(=O)[C@H](CC(C)C)NC(=O)[C@H](Cc1ccc(O)cc1)NC(=O)[C@H](CO)NC(=O)[C@H](CO)NC(=O)[C@@H](NC(=O)[C@@H](N)CC(=O)O)C(C)C)C(C)C)[C@@H](C)CC)C(C)C)C(N)=O)C(=O)O)C(=O)O` [compound 60] (H-DVSSYLEEQAVREFIAWLVKGGPSSGAPPPSK([AEEA-γGlu-γGlu-AEEA-Palmitoyl])-NH2; N-terminus assumed) as the molecule, how does the solubility (Solubility in buffer; [1]) read?
A: Its solubility is over 25 mg/mL.

Q: And the IC50 (GLP-1R; [2])?
A: Its IC50 is 0.005 µM.

Q: What does the source list for `CCCCCCCCCCCCCCCC(=O)NCCCC[C@H](NC(=O)[C@H](CO)NC(=O)[C@@H]1CCCN1C(=O)[C@@H]1CCCN1C(=O)[C@@H]1CCCN1C(=O)[C@H](C)NC(=O)CNC(=O)[C@H](CO)NC(=O)[C@H](CO)NC(=O)[C@@H]1CCCN1C(=O)CNC(=O)CNC(=O)[C@H](CCCCN)NC(=O)[C@@H](NC(=O)[C@H](CC(C)C)NC(=O)[C@H](Cc1c[nH]c2ccccc12)NC(=O)[C@H](C)NC(=O)[C@H](NC(=O)[C@H](Cc1ccccc1)NC(=O)[C@H](CCC(=O)O)NC(=O)[C@H](CCCNC(=N)N)NC(=O)[C@@H](NC(=O)[C@H](C)NC(=O)[C@H](CCC(N)=O)NC(=O)[C@H](CCC(=O)O)NC(=O)[C@H](CCC(=O)O)NC(=O)[C@H](CC(C)C)NC(=O)[C@H](Cc1ccc(O)cc1)NC(=O)[C@H](CO)NC(=O)[C@H](CO)NC(=O)[C@@H](NC(=O)[C@@H](N)CC(=O)O)C(C)C)C(C)C)[C@H](C)CC)C(C)C)C(N)=O` [compound 51] (H-DVSSYLEEQAVREF[dI]AWLVKGGPSSGAPPPSK(Palmitoyl)-NH2; N-terminus assumed)?
A: solubility (Solubility in buffer; pH 7.7, Solubility [mg/mL] 80 mM/AmBicarb pH7.7, Table 5, 80 mM AmBicarb pH7.7): > 20 mg/mL; IC50 (GLP-1R; [3]): 0.031 µM

Q: For `CCCCCCCCCCCCCCCC(=O)N[C@@H](CCC(=O)NCCCC[C@H](NC(=O)[C@H](CO)NC(=O)[C@@H]1CCCN1C(=O)[C@@H]1CCCN1C(=O)[C@@H]1CCCN1C(=O)[C@H](C)NC(=O)CNC(=O)[C@H](CO)NC(=O)[C@H](CO)NC(=O)[C@@H]1CCCN1C(=O)CNC(=O)CNC(=O)[C@H](CCCCN)NC(=O)[C@@H](NC(=O)[C@H](CC(C)C)NC(=O)[C@H](Cc1c[nH]c2ccccc12)NC(=O)[C@H](C)NC(=O)[C@@H](NC(=O)[C@H](Cc1ccccc1)NC(=O)[C@H](CCC(=O)O)NC(=O)[C@H](CCCNC(=N)N)NC(=O)[C@@H](NC(=O)[C@H](C)NC(=O)[C@H](CCC(N)=O)NC(=O)[C@H](CCC(=O)O)NC(=O)[C@H](CCC(=O)O)NC(=O)[C@H](CC(C)C)NC(=O)[C@H](Cc1ccc(O)cc1)NC(=O)[C@H](CO)NC(=O)[C@H](CO)NC(=O)[C@@H](NC(=O)[C@@H](N)CC(=O)O)C(C)C)C(C)C)[C@@H](C)CC)C(C)C)C(N)=O)C(=O)O` [compound 52] (H-DVSSYLEEQAVREFIAWLVKGGPSSGAPPPSK([γGlu-Palmitoyl])-NH2; N-terminus assumed), which solubility (Solubility in buffer; [1]) is on record?
A: Its solubility is over 20 mg/mL.

Q: And the IC50 (GLP-1R; [2])?
A: The IC50 was 0.012 µM.

Q: What does the source list for `CCCCCCCCCCCCCCCC(=O)NCCCC[C@H](NC(=O)[C@H](CO)NC(=O)[C@@H]1CCCN1C(=O)[C@@H]1CCCN1C(=O)[C@@H]1CCCN1C(=O)[C@H](C)NC(=O)CNC(=O)[C@H](CO)NC(=O)[C@H](CO)NC(=O)[C@@H]1CCCN1C(=O)CNC(=O)CNC(=O)[C@H](CCCNC(=N)N)NC(=O)[C@@H](NC(=O)[C@H](CC(C)C)NC(=O)[C@H](Cc1c[nH]c2ccccc12)NC(=O)[C@H](CCC(=O)O)NC(=O)[C@@H](NC(=O)[C@H](Cc1ccccc1)NC(=O)[C@H](CCC(=O)O)NC(=O)[C@H](CCCNC(=N)N)NC(=O)[C@@H](NC(=O)[C@H](C)NC(=O)[C@H](CCC(=O)O)NC(=O)[C@H](CCC(=O)O)NC(=O)[C@H](CCC(=O)O)NC(=O)[C@H](CC(C)C)NC(=O)[C@H](Cc1ccc(O)cc1)NC(=O)[C@H](CO)NC(=O)[C@H](CO)NC(=O)[C@@H](NC(=O)[C@@H](N)CC(=O)O)C(C)C)C(C)C)[C@@H](C)CC)C(C)C)C(N)=O` [compound 72] (H-DVSSYLEEEAVREFIEWLVRGGPSSGAPPPSK(Palmitoyl)-NH2; N-terminus assumed)?
A: solubility (Solubility in buffer; pH 7.7): > 20 mg/mL; IC50 (GLP-1R; Table 3, amino acid substitution variants of Jant4-K40, read-out: Bioactivity IC50): 0.019 µM
